The source of these data is PMC5641330, “Prediction of a Therapeutic Dose for Buagafuran, a Potent Anxiolytic Agent by Physiologically Based Pharmacokinetic/Pharmacodynamic Modeling Starting from Pharmacokinetics in Rats and Human” (Frontiers in Pharmacology, 2017).

A short description of data set [1]: Plasma protein binding by equilibrium dialysis, human plasma. The format is in vitro ADME. The settings on record: 0.5–2 μg/mL. As to the method:
The plasma protein binding of buagafuran (0.5–2 μg/mL) was investigated by equilibrium dialysis. Aliquots (0.5 mL) of plasma were dialyzed against 10 mL phosphate buffered saline containing a ^3H-buagafuran tracer over a membrane with an 8,000- to 12,000-dalton molecular weight cutoff. Dialysis experiment was performed for 60 h at 4 °C. After the dialysis period, 100 μL of the PBS fraction (containing unbound buagafuran) and 100 μL of the plasma fraction (containing both bound and unbound drug) was taken for liquid scintillation counting. The ratio of buagafuran concentration in buffer to that in plasma was applied to calculate the unbound fraction (Fu).
In general terms: Equilibrium dialysis compares concentrations on both sides of a semipermeable membrane.

Data set [2] can be described thus: Clearance prediction from incubation with rat liver microsomes. The data set is classed as in vitro ADME. As to the method:
(§1) Drug disappearance t1/2 value measurements in rat and human microsomes were used to determine the in vitro apparent intrinsic clearance value (CLintapp) of buagafuran acquired using Then CLintapp was converted to in vivo intrinsic clearance (CLint).
(§2) Rat or human liver microsomal incubation (0.5 mg/mL) was carried out at 37°C in a mixture of 0.5 mL in 0.05 M Tris–HCl buffer (pH 7.4). Buagafuran (2 μM) was added to the incubation system. The addition of NADPH (1 mM) initiated the reaction, then the reaction was incubated for 0, 10, 20, 30, 45, and 60 min. The equal volume of acetonitrile containing the IS (10 ng/mL) was added to stop the reaction. The mixtures were centrifuged at 16000 g for 5 min and the supernatants were determined using LC-MS/MS method.
(§3) The natural log (In) of buagafuran concentration versus time was plotted and the slope of the best fit line of was determined by the data (k). This was converted into in vitro t1/2 where t1/2 = In 2/k. CLintapp was calculated by the following equation: […]
(§4) Where M is the microsomal protein concentration in the incubation. CLint by liver was calculated from equation 2:
(§5) (2) CLint=CLint(app)×mgmicrosome/gliver×liverweight(g)/bodyweight(kg)
(§6) Where a value of 45 mg of protein per gram of liver tissue was used for both rat and human, and a liver weight of 40 and 21 g per kg were applied to rat and human, respectively ([Hosea et al., 2009]). […]

Data set [3] can be described thus: Clearance prediction from incubation with human liver microsomes. The format is in vitro ADME. The method, then: as §1, §2, §3, §4, §5, §6
A short description of data set [4]: PBPK simulation in human (GastroPlus). The conditions noted are these: optimized by comparing fitting with observed PK data. The text has this:
GastroPlus^TM software (version 8.5) was used to perform all simulations, (Simulations Plus, Inc., Lancaster, CA, United States). The absorption of oral formulations from the GI tract was modeled by the advanced compartmental absorption and transit (ACAT^TM) model implemented in GastroPlus ([Agoram et al., 2001]; [Kuentz et al., 2006]; [Huang et al., 2009]; [Zhang et al., 2011]). Input parameters in the ACAT model include three groups: formulation properties, physicochemical properties and pharmacokinetic parameters. […] The immediate release (IR) suspension for rat and IR capsule for human were selected for simulation of buagafuran in GastroPlus^TM. The ACAT model consists of nine compartments that mimic the GI tract. Each GI tract has an associated ASF. ASF is the multiplier used to scale the permeability to account for different surface-to-volume ratios, pH effects, transporter differences, and other factors that affect absorption between different compartments ([Zhang et al., 2011]). Four coefficients C1–C4 are used to calculate ASF. And there are eight basic ASF models in version 8.5. […]
The pharmacokinetic parameters of unbound fraction in plasma (FUp) were experimentally measured values. […]

One may read the fraction unbound as free concentration divided by total concentration.

For the molecule `CCCCC1=CCC[C@@]2(C)CC[C@@H]3C[C@]12OC3(C)C` [buagafuran], the “concentration dependence of plasma protein binding” value in data set [1] (human plasma) is “no evident concentration-dependent binding”. Moreover, the fraction unbound at 60 h in data set [1] (human, plasma, equilibrium dialysis, read-out: Fup human (unbound fraction in human plasma)) was found to be 0.04. The CLhep predicted is 28.0 mL/min/kg in data set [2] (from rat liver microsomes, well-stirred model) and 7.7 mL/min/kg in data set [3] (from human liver microsomes, well-stirred model). In addition, the microsomal CLint at 2 μM is 33 µL/min/mg in data set [2] (pH 7.4, rat liver microsomes 0.5 mg/mL, 2 μM, read-out: in vitro CLintapp) and 22 µL/min/mg in data set [3] (pH 7.4, human liver microsomes 0.5 mg/mL, 2 μM, read-out: in vitro CLintapp). Also, in data set [4], the “input (refined) CLhep” value was 11.7 mL/min/kg.
